Experiments:
[1] = system: murine primary cortical neurons; assay: Oxygen-glucose deprivation (OGD) of murine primary cortical neurons, LDH release; type: cell-based, mice
Procedure: Primary neuronal cultures were prepared from the cortex of embryonic day 15 C57BL6J mice. In brief, brains were harvested and the hemispheres were dissected under a microscope. The cortical neurons were dissociated in Neurobasal medium (Gibco) with B27 supplement (antioxidant plus, Gibco). The cells were seeded into 24 well plates coated with poly-D-lysine (Becton Dickinson Labware, 2×10^5 cells per well), followed by the medium-change with fresh one on the next day. The half of culture medium was replaced with Neurobasal medium witn B27 supplement (antioxidant minus) every other day, and the cultures were maintained at 37° C. in 95% air/5% CO2 in a humidified incubator. Cells were used for experiments 11 days after seeding.
OGD for primary cortical neurons was performed with the similar protocol as above (FIG. 3B). Briefly, the culture medium was replaced with deoxygenated Neurobasal medium without glucose, and then placed in the hypoxic chamber for 2.5 hours. After OGD, the medium was replaced with Neurobasal medium with glucose and incubated for 21 hours at 37° C. in 95% air/5% CO2 in a humidified incubator. […]
A microtiter plate containing cells was centrifuged at 250×g for 10 minutes and the supernatant was used for LDH measurement with LDH Cytotoxicity Detection Kit (Roche). […] Percentage of released LDH was calculated with following formula: {LDH (medium)/LDH (medium+cell)×100}. […]

SH-SY5Y = assay: Intracellular GSH levels in SH-SY5Y (HPLC); type: cell-based, Human; settings: 50 μM, 8 hours
Procedure: Intracellular GSH level of SH-SY5Y was measured using HPLC method as previously reported (Kimura et al. (2009) Antioxidants & Redox Signaling 12, 1-13). Briefly, cells were seeded into 6 cm dishes (5×10^5 cells per dish) and treated with 50 μM H2S donors or memantine with or without 2 mM glutamate for 8 hours, followed by washing with ice-cold PBS. Cells were scraped and transferred to a microfuge tube and sonicated. Some fraction of lysate was used for protein assay. After centrifugation, 75 μl of supernatant, 26 μl of 2-(cyclohexylamino) ethanesulfonic acid (CHES, 0.5 M, PH 8.4), and 4 μl of 50 μM MBB were mixed and incubated at room temperature in dark for 30 minutes. Acetic acid (100 μl, 30% v/v) was added, followed by centrifugation at 15,000×g for 10 min after 5 min incubation of the tube on ice. The supernatant was analyzed using HPLC at wavelength of λex=370 nm and λem=486 nm.

SH-SY5Y cells = assay: Oxygen-glucose deprivation (OGD) of SH-SY5Y cells, viability by LDH release, MTT and CV assays; type: cell-based, Human
Procedure: OGD for SH-SY5Y was performed by placing cells in a hypoxia chamber ([…] Technologies Inc.) for 15 hours, followed by 24 hours of reoxygenation as previously reported (FIG. 3A) (Serra-Pérez et al. (2008) Journal of Neurochemistry 106, 1237-1247). Briefly, medium was replaced with glucose-free RPMI 1640 with L-glutamine (Cellgro by Mediatech, Inc), deoxygenated with anaerobic gas mixture (93% N2-5% CO2-2% H2) for 30 minutes before use. Cells were then placed in a hypoxia chamber, flushed with anaerobic gas mixture (93% N2-5% CO2-2% H2) and incubated at 37° C. After 15 hours of hypoxia, medium was replaced with DMEM/F12 and incubated for 24 hours at 37° C. in 95% air/5% CO2 in a humidified incubator.
A microtiter plate containing cells was centrifuged at 250×g for 10 minutes and the supernatant was used for LDH measurement with LDH Cytotoxicity Detection Kit (Roche). After aspirating the medium, remaining cells were washed with PBS, then, 100 μl of 1% Triton-X was added to each well, followed by incubation at 37° C. for 30 minutes. Medium and lysates were used for LDH measurement at wavelength 492 nm. Percentage of released LDH was calculated with following formula: {LDH (medium)/LDH (medium+cell)×100}. Average value of control (cells without OGD) was deducted as background.
Ten μl of thiazolyl blue tetrazolium bromide solution (5 mg/ml in PH 7.4 PBS) was added to each well containing 100 μl of medium and cells, followed by incubation at 37° C. for 4 hours in the dark. Isopropanol (100 μl, 0.04 N HCl) was added to dissolve blue dye. After dissolved completely, absorbance was measured with plate-reader (Synergy 2, BioTek Instrument) at test wavelength 570 nm and reference wavelength 670 nm. Cell viability was determined by absorbance at 570 nm and reported as ratio to control cells (without OGD).
After aspirating culture medium, cells were fixed and stained by 0.5% CV in 95% (v/v) ethanol for 5 minutes, then washed by tap water several times. After taking photographs, 1% sodium dodecylsulfate solution was added to each well to elute blue dye. Absorbance was measured with plate-reader at 595 nm of wavelength. Values were shown as ratio to control (cells without OGD).

[2] = system: murine primary cortical neurons; assay: Intracellular calcium level [Ca2+]i (Fura-2/AM) with or without glutamate; type: cell-based, mice; settings: 20 μM
[3] = system: phosphorylated tau protein at serine 202 and threonine 205; assay: LPS-induced tau phosphorylation in mice hippocampus (immunoblot); type: in vivo; settings: 90 μmol/kg pretreatment
[4] = Plasma and cerebral sulfide levels of mice after intraperitoneal administration; type: in vivo; settings: 25 μmol/kg intraperitoneal, 90 minutes after administration
Source text: Blood was drawn from left ventricle and centrifuged to collect the plasma. After perfusion with Tris-HCl buffer via left ventricle, brain was harvested, homogenized in Tris-HCl, and centrifuged. Plasma and supernatant of brain homogenate were derivatized with MBB and analyzed by HPLC.

[5] = time- and dose-range studies, SH-SY5Y

Q: Which “Neuroprotective effect after OGD (LDH release)” value ([1]; 50 μM added 30 minutes after end of OGD, 2.5 hours OGD, 21 hours reoxygenation) does the source give for C[C@]12C[C@@H]3C[C@](C)(C1)C[C@@](NC(=O)c1ccc(-c4cssc4=S)cc1)(C3)C2 [S-memantine, N-((1r,3R,5S,7r)-3,5-dimethyladamantan-1-yl)-4-(3-thioxo-3H-1,2-dithiol-4-yl)-benzamide] here?
A: more robust neuroprotective effects compared to ACS48 or memantine

Q: And the “Cell viability after OGD” value ([1]; incubation starting at 30 minutes or 2 hours after OGD)?
A: improved

Q: What about the “Magnitude of increase of GSH levels compared with Na2S or ACS48” value (SH-SY5Y) of the same molecule?
A: greater than with Na2S or ACS48

Q: And the “Intracellular GSH levels” value (SH-SY5Y; with 2 mM glutamate)?
A: restored intracellular GSH levels

Q: And the “Intracellular GSH levels” value (SH-SY5Y; without glutamate)?
A: increased intracellular GSH levels

Q: What about the “Cell viability after OGD (LDH release, MTT, CV assays)” value (SH-SY5Y cells; 50 μM added 8 hours after the end of OGD, 15 hours OGD, 24 hours reoxygenation) of the same molecule?
A: improved the viability of SH-SY5Y cells more markedly than did addition of ACS48 or memantine

Q: What about the “Cell viability after OGD” value (SH-SY5Y cells; incubation starting at any time between pre-OGD and up to 8 hours after OGD) of the same molecule?
A: improved

Q: And the “Most effective dose to improve viability after OGD” value (SH-SY5Y cells; [5])?
A: 50 µM

Q: And the “Most effective time point of addition after the end of OGD” value (SH-SY5Y cells; [5])?
A: 8 h

Q: And the Glutamate-induced calcium accumulation ([2]; 100 μM glutamate)?
A: suppressed calcium accumulation

Q: And the “Magnitude of calcium accumulation compared with Na2S or ACS48” value ([2]; without glutamate)?
A: markedly smaller than that induced by Na2S or ACS48

Q: What about the “LPS-induced tau phosphorylation at serine 202 and threonine 205 in mice hippocampus” value [3] of the same molecule?
A: prevented LPS-induced tau phosphorylation

Q: What about the Cerebral sulfide levels [4] of the same molecule?
A: increased

Q: And the Plasma sulfide levels [4]?
A: increased plasma sulfide levels

From patent publication US9242009B2, “Compositions and methods to treat neurodegenerative diseases” (The General Hospital Corporation, priority 2012, dated 2016)
